Measured values published in US20260207560A1, “PLURALITY OF GRANULES” (priority 2022, published 2026).
In brackets after ≈: the same amount, converted by molar mass. Several values for one entry are separate records, joined by “and”; a condition that tells them apart may be missing. Equal values may be shown once.

Assays:
[1] = Solubility of active ingredient in volatile solvents (visual); settings: for solubility: thermodynamic from solid, Solubility of the active ingredient; for solubility / Solubility of the active ingredient: visual; for Solubility of the active ingredient: listed as active ingredient
Protocol: The active ingredient was dissolved in different solvents and the stability of the solution was assessed after being held overnight at ambient temperature. The following solvents were studied: ethanol, 50:50 EtOH:Water, 0.1 M HCl, pH 3 citric acid buffer, 5% SLS aq. and 5% Tween 80 aq.
This study involved assessing the solubility and the chemical stability of the active ingredient in different volatile solvents for use in wet granulation. The solubility was measured visually after mixing (by the disappearance of undissolved solids). Increasing quantities of each solvent were added as detailed above.

[2] = Forced degradation study of the active substance (HPLC assay, observations)
[3] = Compatibility of active ingredient with HPMC and gelatin capsule shells (assay, related substances); type: physicochemical; settings: for Assay (%): single vials
Protocol: Binary mixtures of the active ingredient with the capsules shells were made as follows: • An active ingredient doping solution (active ingredient dissolved in ethanol) was made ([…]). A 100 μL aliquot of this doping was used to ‘spike’ the 10 vials of each capsule shell type as described in Table 5. The nominal quantity of active ingredient per vial was therefore 50 μg. • No doping solution was added to the three control vials of the excipient. • The active vials were left open overnight to evaporate all the ethanol, before closing the vials. • Both the active and placebo control vials were placed on stability for up to 28 days at 25° C. and 50° C.

[4] = Gelatin capsule shell, 50° C., 28 days
[5] = HPMC capsule shell, 25° C., 14 days
[6] = HPMC capsule shell, 25° C., 14 days, listed as active ingredient

## CCS(=O)(=O)Nc1ccc2c(c1)nc(C(C)(C)C)n2CC1CCC(F)(F)CC1 [Compound I, N-(2-(tert-butyl)-1-((4,4-difluorocyclohexyl)methyl)-1H-benzimidazol-5-yl)ethanesulfonamide]
[1]; 0.1 M HCl, simulated gastric fluid
  solubility: 7000 µg/mL (≈ 16.9 mM)
[1]; 0.1 M HCl
  Solubility of the active ingredient: > 7000 µg/mL
[1]; 5% SLS aq., 0.6 mg/mL
  Time to dissolve: 70 min
[1]; 5% SLS aq., 3 mg/mL
  Time to dissolve (DND = did not dissolve): DND
[1]; 5% SLS aq., 7 mg/mL
  Time to dissolve (DND = did not dissolve): DND
[1]; 5% Tween 80 aq., aqueous with cosolvent or surfactant or cyclodextrin, 5% Tween 80
  solubility: < 600 µg/mL
[1]; 5% Tween 80 aq., 0.6 mg/mL
  Time to dissolve (DND = did not dissolve): DND
[1]; 5% Tween 80 aq., 3 mg/mL
  Time to dissolve (DND = did not dissolve): DND
[1]; 5% Tween 80 aq., 7 mg/mL
  Time to dissolve (DND = did not dissolve): DND
[1]; 50:50 EtOH:water, aqueous with cosolvent or surfactant or cyclodextrin, 50:50 EtOH:water
  solubility: < 600 µg/mL
[1]; 50:50 EtOH:water, 0.6 mg/mL
  Time to dissolve (DND = did not dissolve): DND
[1]; 50:50 EtOH:water, 3 mg/mL
  Time to dissolve (DND = did not dissolve): DND
[1]; 50:50 EtOH:water, 7 mg/mL
  Time to dissolve (DND = did not dissolve): DND
[1]; aqueous 5% SLS, aqueous with cosolvent or surfactant or cyclodextrin
  solubility: > 600 µg/mL
[1]; ethanol, organic solvent or mixture
  solubility: 7000 µg/mL (≈ 16.9 mM)
[1]; ethanol
  Solubility of the active ingredient: > 7000 µg/mL
[1]; pH 3 citric acid buffer, pH 3, aqueous buffer, pH 3 citric buffer
  solubility: > 600 µg/mL
[1]; pH 3 citric acid buffer, 0.6 mg/mL
  Time to dissolve: 180 min
[1]; pH 3 citric acid buffer, 3 mg/mL
  Time to dissolve (DND = did not dissolve): DND
[1]; pH 3 citric acid buffer, 7 mg/mL
  Time to dissolve (DND = did not dissolve): DND
[2]; Test 1 Control (solution, ambient temperature)
  Sample observations: Clear colourless solution. No change over study period.
[2]; Test 1 solution control, 0 days
  Assay of active substance: 99.40 area %
[2]; Test 1 solution control, 3 days
  Assay of active substance: 99.42 area %
[2]; Test 1 solution control, 7 days
  Assay of active substance: 99.30 area %
[2]; Test 1 solution control, 11 days
  Assay of active substance: 99.39 area %
[2]; Test 2 Solid state 100° C.
  Sample observations: Off-white solid turning to very faint orange solid over study
[2]; Test 2 solid state at 100° C., 3 days
  Assay of active substance: 99.43 area %
[2]; Test 2 solid state at 100° C., 7 days
  Assay of active substance: 99.40 area %
[2]; Test 3 Acid 60° C.
  Sample observations: Clear colourless solution. No change over study period.
[2]; Test 3 Acid (1M, ambient temperature)
  Sample observations: Clear colourless solution. No change over study period.
[2]; Test 3 acid (1M) ambient temperature, 3 days
  Assay of active substance: 99.40 area %
[2]; Test 3 acid (1M) ambient temperature, 7 days
  Assay of active substance: 99.41 area %
[2]; Test 3 acid (1M) at 60° C. until day 7, 80° C. until day 11, 11 days
  Assay of active substance: 98.87 area %
[2]; Test 3 acid (1M) at 60° C., 3 days
  Assay of active substance: 99.37 area %
[2]; Test 3 acid (1M) at 60° C., 7 days
  Assay of active substance: 99.35 area %
[2]; Test 4 Base 40° C.
  Sample observations: Clear colourless solution. No change over study period.
[2]; Test 4 Base (0.5M, ambient temperature)
  Sample observations: Clear colourless solution. No change over study period.
[2]; Test 4 base (0.5M) ambient temperature, 3 days
  Assay of active substance: 99.40 area %
[2]; Test 4 base (0.5M) ambient temperature, 7 days
  Assay of active substance: 99.37 area %
[2]; Test 4 base (0.5M) at 60° C. until day 7, 80° C. until day 11, 11 days
  Assay of active substance: 99.16 area %
[2]; Test 4 base (0.5M) at 60° C., 3 days
  Assay of active substance: 99.34 area %
[2]; Test 4 base (0.5M) at 60° C., 7 days
  Assay of active substance: 99.32 area %
[2]; Test 5 Heat 60° C. (solution)
  Sample observations: Clear colourless solution. No change over study period
[2]; Test 5 solution at 60° C. until day 7, 80° C. until day 11, 11 days
  Assay of active substance: 98.00 area %
[2]; Test 5 solution at 60° C., 3 days
  Assay of active substance: 99.13 area %
[2]; Test 5 solution at 60° C., 7 days
  Assay of active substance: 99.34 area %
[2]; Test 6 Peroxide (1.5%)
  Sample observations: Clear colourless solution. No change over study period
[2]; Test 6 peroxide (1.5%), 3 days
  Assay of active substance: 98.50 area %
[2]; Test 6 peroxide (1.5%), 7 days
  Assay of active substance: 97.75 area %
[2]; Test 6 peroxide (1.5%), 13 days
  Assay of active substance: 96.58 area %
[2]; Test 7 Photostability (Solution Control)
  Sample observations: Clear colourless solution. No change over study period.
[2]; Test 7 photocontrol solution
  Assay of active substance: 99.40 area %
[2]; Test 8 Photostability (Solution Treated)
  Sample observations: Clear colourless solution turning to a clear yellow solution
[2]; Test 8 photo treated solution, 1.92 million lux hours, near-UV 374.6 Whm^−2
  Assay of active substance: 74.53 area %
[2]; Test 9 Photostability (Solid Control)
  Sample observations: Off white solid. No change over study period.
[2]; Test 9 photocontrol solid
  Assay of active substance: 99.40 area %
[2]; Test 10 Photostability (Solid Treated)
  Sample observations: Off-white solid turning to very faint orange solid over study
[2]; Test 10 phototreated solid, 1.92 million lux hours, near-UV 374.6 Whm^−2
  Assay of active substance: 99.31 area %
[2]; peroxide, 1M acid, 0.5M base and solution when extended to 80° C.
  Forced degradation outcome (summary): slight degradation
[2]; solution at room temperature, solid at 100° C., 1M acid and 0.5M base at room temperature and 60° C., solution at 60° C., photostability as a solid
  Forced degradation outcome (summary): stable to degradation
[2]; solution under photostability conditions
  Forced degradation outcome (summary): Major degradation
[3]; Gelatin capsule shell, 25° C., 14 days
  Assay (%), mean: 98.1%
[3]; Gelatin capsule shell, 25° C., 14 days, listed as active ingredient
  Assay (%): 98.9% and 97.4%
[3]; Gelatin capsule shell, 25° C., 28 days
  Assay (%), mean: 99.1%
[3]; Gelatin capsule shell, 25° C., 28 days, listed as active ingredient
  Assay (%): 98.8% and 99.4%
[3]; Gelatin capsule shell, 50° C., 14 days
  Assay (%), mean: 99.3%
[3]; Gelatin capsule shell, 50° C., 14 days, listed as active ingredient
  Assay (%): 99.3% and 99.4%
[3]; [4]
  Assay (%), mean: 89.3%
  Assay (%): 99.4%
[3]; Gelatin capsule shell, initial
  Assay (%), mean: 99.6%
[3]; Gelatin capsule shell, initial, listed as active ingredient
  Assay (%): 99.0% and 100.2%
[3]; [5]
  Assay (%), mean: 95.8%
  Related substance RRT 1.04: 0.08%
  Related substance RRT 1.10: 0.09%
[3]; [6]
  Related substance RRT 0.92: 0.08% and 0.07%
  Related substance RRT 0.98: 0.31% and 0.32%
  Related substance RRT 1.35: 0.13% and 0.12%
